Source: patent US9265253B2, “Use of macrocyclic picolinamides as fungicides” (DOW AGROSCIENCES LLC, priority 2013, dated 2016)

What follows are compounds tested on Mycosphaerella graminicola; Anamorph: Septoria tritici (assay: Leaf Blotch of Wheat (SEPTTR) disease control). Conditions: Zymoseptoria tritici, 24 h, 1 Day Protectant, rate 100 ppm; read-out: SEPTTR 1 DP disease control.
Type: in vivo
Procedure, shortened: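 Wheat seedlings (Yuma, first leaf emerged) sprayed to run-off with compound in acetone/water with 110 ppm Triton X-100, or track-sprayed as EC with 0.1% Trycol 5941. Septoria tritici spores inoculated before or after treatment. Dew chambers, then 20 °C greenhouse. Percent disease control derived from severity (0–100%) relative to untreated plants.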
`COc1ccnc(C(=O)N[C@H]2CCC[C@H](Cc3ccc(F)cc3)[C@@H](OC(=O)C(C)C)[C@H](C)OC2=O)c1OCOC(C)=O` [Compound F105] was tested, and the pest or weed control at 100 ppm was 80 to 100%.
With `CCCO[C@@H]1[C@@H](CC2CCCC2)CCC[C@H](NC(=O)c2nccc(OC)c2OC(C)=O)C(=O)O[C@H]1C` [Compound F74] the pest or weed control at 100 ppm was 80 to 100%.
For `C=CCO[C@@H]1[C@@H](Cc2ccc(F)cc2)CCC[C@H](NC(=O)c2nccc(OC)c2OCOC(C)=O)C(=O)O[C@H]1C` [Compound F100], the pest or weed control at 100 ppm was 80 to 100%.
`CCOCC(=O)OCOc1c(OC)ccnc1C(=O)N[C@H]1CCC[C@H](Cc2ccc(OC)cc2)[C@@H](OCC(C)C)[C@H](C)OC1=O` [Compound F179] was tested, and the pest or weed control at 100 ppm was 80 to 100%.
`COc1ccnc(C(=O)N[C@H]2CCC[C@H](CCOc3ccccc3)[C@@H](Oc3ccccc3)[C@H](C)OC2=O)c1O` [Compound F44] showed a pest or weed control at 100 ppm of 80 to 100%.

Same assay, conditions: Zymoseptoria tritici, 24 h, 1 Day Protectant, rate 121.5 g/H; read-out: SEPTTR 1 DP disease control
In the case of `COc1ccnc(C(=O)N[C@H]2CCC[C@H](Cc3ccc(F)cc3)[C@@H](OC(=O)C(C)C)[C@H](C)OC2=O)c1OCOC(C)=O` [Compound F105], the pest or weed control at 121.5 g/ha is reported as 80 to 100%.
`CCCO[C@@H]1[C@@H](CC2CCCC2)CCC[C@H](NC(=O)c2nccc(OC)c2OC(C)=O)C(=O)O[C@H]1C` [Compound F74] showed a pest or weed control at 121.5 g/ha of 80 to 100%.
For `C=CCO[C@@H]1[C@@H](Cc2ccc(F)cc2)CCC[C@H](NC(=O)c2nccc(OC)c2OCOC(C)=O)C(=O)O[C@H]1C` [Compound F100], the pest or weed control at 121.5 g/ha was 80 to 100%.
In the case of `CCOCC(=O)OCOc1c(OC)ccnc1C(=O)N[C@H]1CCC[C@H](Cc2ccc(OC)cc2)[C@@H](OCC(C)C)[C@H](C)OC1=O` [Compound F179], the pest or weed control at 121.5 g/ha is reported as 80 to 100%.

Same assay, conditions: Zymoseptoria tritici, 72 h, 3 Day Curative, rate 100 ppm; read-out: SEPTTR 3 DC disease control
For `COc1ccnc(C(=O)N[C@H]2CCC[C@H](Cc3ccc(F)cc3)[C@@H](OC(=O)C(C)C)[C@H](C)OC2=O)c1OCOC(C)=O` [Compound F105], the pest or weed control at 100 ppm was 80 to 100%.
`CCCO[C@@H]1[C@@H](CC2CCCC2)CCC[C@H](NC(=O)c2nccc(OC)c2OC(C)=O)C(=O)O[C@H]1C` [Compound F74] was tested, and the pest or weed control at 100 ppm was 80 to 100%.
In the case of `C=CCO[C@@H]1[C@@H](Cc2ccc(F)cc2)CCC[C@H](NC(=O)c2nccc(OC)c2OCOC(C)=O)C(=O)O[C@H]1C` [Compound F100], the pest or weed control at 100 ppm is reported as 80 to 100%.
In the case of `CCOCC(=O)OCOc1c(OC)ccnc1C(=O)N[C@H]1CCC[C@H](Cc2ccc(OC)cc2)[C@@H](OCC(C)C)[C@H](C)OC1=O` [Compound F179], the pest or weed control at 100 ppm is reported as 80 to 100%.
Compound `COc1ccnc(C(=O)N[C@H]2CCC[C@H](CCOc3ccccc3)[C@@H](Oc3ccccc3)[C@H](C)OC2=O)c1O` [Compound F44] has a pest or weed control at 100 ppm of 80 to 100%.

Same assay, conditions: Zymoseptoria tritici, 72 h, 3 Day Curative, rate 121.5 g/H; read-out: SEPTTR 3 DC disease control
With `COc1ccnc(C(=O)N[C@H]2CCC[C@H](Cc3ccc(F)cc3)[C@@H](OC(=O)C(C)C)[C@H](C)OC2=O)c1OCOC(C)=O` [Compound F105] the pest or weed control at 121.5 g/ha was 80 to 100%.
In the case of `CCCO[C@@H]1[C@@H](CC2CCCC2)CCC[C@H](NC(=O)c2nccc(OC)c2OC(C)=O)C(=O)O[C@H]1C` [Compound F74], the pest or weed control at 121.5 g/ha is reported as 80 to 100%.
`C=CCO[C@@H]1[C@@H](Cc2ccc(F)cc2)CCC[C@H](NC(=O)c2nccc(OC)c2OCOC(C)=O)C(=O)O[C@H]1C` [Compound F100] was tested, and the pest or weed control at 121.5 g/ha was 80 to 100%.
`CCOCC(=O)OCOc1c(OC)ccnc1C(=O)N[C@H]1CCC[C@H](Cc2ccc(OC)cc2)[C@@H](OCC(C)C)[C@H](C)OC1=O` [Compound F179] was tested, and the pest or weed control at 121.5 g/ha was 80 to 100%.

Each compound was assayed on Puccinia triticina; Synonym: Puccinia recondite f. Sp. Tritici (assay: Wheat Brown Rust (PUCCRT) disease control). Conditions: Puccinia triticina, topical, 24 h, 1 Day Protectant, rate 100 ppm; read-out: PUCCRT 1 DP disease control.
Type: in vivo
Procedure, shortened: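 Brown rust on first-leaf Yuma wheat: spore inoculation before or after spray application (acetone/Triton X-100 solution, or EC with Trycol in track spray), overnight 100% RH at 22 °C, disease developed at 24 °C. Severity scored 0–100% and converted to percent control against untreated.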
In the case of `CCCO[C@@H]1[C@@H](CC2CCCC2)CCC[C@H](NC(=O)c2nccc(OC)c2OC(C)=O)C(=O)O[C@H]1C` [Compound F74], the pest or weed control at 100 ppm is reported as 80 to 100%.
`C=CCO[C@@H]1[C@@H](Cc2ccc(F)cc2)CCC[C@H](NC(=O)c2nccc(OC)c2OCOC(C)=O)C(=O)O[C@H]1C` [Compound F100] gave a pest or weed control at 100 ppm of 80 to 100%.
`CCOCC(=O)OCOc1c(OC)ccnc1C(=O)N[C@H]1CCC[C@H](Cc2ccc(OC)cc2)[C@@H](OCC(C)C)[C@H](C)OC1=O` [Compound F179] was tested, and the pest or weed control at 100 ppm was 80 to 100%.
For `COc1ccnc(C(=O)N[C@H]2CCC[C@H](CCOc3ccccc3)[C@@H](Oc3ccccc3)[C@H](C)OC2=O)c1O` [Compound F44], the pest or weed control at 100 ppm was 80 to 100%.

Same assay, conditions: Puccinia triticina, topical, 24 h, 1 Day Protectant, rate 121.5 g/H; read-out: PUCCRT 1 DP disease control
Compound `COc1ccnc(C(=O)N[C@H]2CCC[C@H](Cc3ccc(F)cc3)[C@@H](OC(=O)C(C)C)[C@H](C)OC2=O)c1OCOC(C)=O` [Compound F105] has a pest or weed control at 121.5 g/ha of 80 to 100%.
For `CCCO[C@@H]1[C@@H](CC2CCCC2)CCC[C@H](NC(=O)c2nccc(OC)c2OC(C)=O)C(=O)O[C@H]1C` [Compound F74], the pest or weed control at 121.5 g/ha was 80 to 100%.
In the case of `C=CCO[C@@H]1[C@@H](Cc2ccc(F)cc2)CCC[C@H](NC(=O)c2nccc(OC)c2OCOC(C)=O)C(=O)O[C@H]1C` [Compound F100], the pest or weed control at 121.5 g/ha is reported as 80 to 100%.
Compound `CCOCC(=O)OCOc1c(OC)ccnc1C(=O)N[C@H]1CCC[C@H](Cc2ccc(OC)cc2)[C@@H](OCC(C)C)[C@H](C)OC1=O` [Compound F179] has a pest or weed control at 121.5 g/ha of 80 to 100%.

Same assay, conditions: Puccinia triticina, topical, 72 h, 3 Day Curative, rate 100 ppm; read-out: PUCCRT 3 DC disease control
With `COc1ccnc(C(=O)N[C@H]2CCC[C@H](Cc3ccc(F)cc3)[C@@H](OC(=O)C(C)C)[C@H](C)OC2=O)c1OCOC(C)=O` [Compound F105] the pest or weed control at 100 ppm was 80 to 100%.
Work on `CCCO[C@@H]1[C@@H](CC2CCCC2)CCC[C@H](NC(=O)c2nccc(OC)c2OC(C)=O)C(=O)O[C@H]1C` [Compound F74] yielded a pest or weed control at 100 ppm of 80 to 100%.
`C=CCO[C@@H]1[C@@H](Cc2ccc(F)cc2)CCC[C@H](NC(=O)c2nccc(OC)c2OCOC(C)=O)C(=O)O[C@H]1C` [Compound F100] was tested, and the pest or weed control at 100 ppm was 80 to 100%.
`CCOCC(=O)OCOc1c(OC)ccnc1C(=O)N[C@H]1CCC[C@H](Cc2ccc(OC)cc2)[C@@H](OCC(C)C)[C@H](C)OC1=O` [Compound F179] was tested, and the pest or weed control at 100 ppm was 80 to 100%.
Compound `COc1ccnc(C(=O)N[C@H]2CCC[C@H](CCOc3ccccc3)[C@@H](Oc3ccccc3)[C@H](C)OC2=O)c1O` [Compound F44] has a pest or weed control at 100 ppm of 80 to 100%.

Same assay, conditions: Puccinia triticina, topical, 72 h, 3 Day Curative, rate 121.5 g/H; read-out: PUCCRT 3 DC disease control
For `COc1ccnc(C(=O)N[C@H]2CCC[C@H](Cc3ccc(F)cc3)[C@@H](OC(=O)C(C)C)[C@H](C)OC2=O)c1OCOC(C)=O` [Compound F105], the pest or weed control at 121.5 g/ha was 80 to 100%.
In the case of `CCCO[C@@H]1[C@@H](CC2CCCC2)CCC[C@H](NC(=O)c2nccc(OC)c2OC(C)=O)C(=O)O[C@H]1C` [Compound F74], the pest or weed control at 121.5 g/ha is reported as 0 to 80%.
With `C=CCO[C@@H]1[C@@H](Cc2ccc(F)cc2)CCC[C@H](NC(=O)c2nccc(OC)c2OCOC(C)=O)C(=O)O[C@H]1C` [Compound F100] the pest or weed control at 121.5 g/ha was 0 to 80%.
For `CCOCC(=O)OCOc1c(OC)ccnc1C(=O)N[C@H]1CCC[C@H](Cc2ccc(OC)cc2)[C@@H](OCC(C)C)[C@H](C)OC1=O` [Compound F179], the pest or weed control at 121.5 g/ha was 0 to 80%.
